According to patent US20030229132A1, “Small molecule modulators of apoptosis” (priority 2002, published 2003):

How the values were obtained:
[1] = system: Jurkat cells; experiment: Caspase-3 activation in Jurkat cells (immunoblot); assay type: cell-based, human; conditions: 50 μM compound or 1 μM staurosporin, 6 hr
Protocol: (§1) (C) DNA fragmentation analysis. […] Cell viability assay.
(§2) Compounds were then tested for their ability to induce apoptosis in live cells. The ability of the compounds to activate caspase-3 in a Jurkat cell line was first assayed. […] This same pattern was seen when we assayed for the cleavage of poly (ADP-ribose) polymerase (PARP), a cellular substrate of caspases-3 and -7 (see, D. W. Nicholson, Cell Death Differ 6, 1028-42 (1999)). Upon apoptosis, PAR-P is cleaved from a 116 kD to an 85 kD protein.

[2] = system: Jurkat cells; experiment: DNA fragmentation analysis in Jurkat cells; assay type: cell-based, human; conditions: 50 μM compound or 1 μM staurosporin, 8 hr
[3] = system: caspase-3 (DEVDase activity); experiment: DEVDase fluorescence screen in HeLa cell S-100 cytoplasmic extracts; assay type: biochemical; conditions: in vitro fluorescence assay, HeLa S-100 extracts with cyto c
Text: In order to identify compounds that modulate apoptosis, a chemical genetics approach was utilized to screen for molecules that target components of the apoptosis pathway (see, T. U. Mayer et al., Science 286, 971-4 (1999)). An in vitro screen using cytoplasmic extracts was adapted for apoptosis to a 96-well format and used to test an in-house library of ˜3500 compounds (see, T. Fernandes-Alnemri et al, Proc Natl Acad Sci USA 93, 7464-9 (1996); X. Liu, C. N. Kim, J. Yang, R. Jemmerson, X. Wang, Cell 86, 147-57 (1996); L. M. Leoni et al., Proc Natl Acad Sci USA 95, 9567-71 (1998)). Briefly, individual compounds were added to HeLa cell S-100 cytoplasmic extracts at a final concentration of 1 mM and apoptosis was induced by adding bovine heart cyto c (HeLa cell cytoplasmic extracts were prepared according to previously published reports (see, P. Li et al., Cell 91, 479-89 (1997)). Compounds were distributed into 96-well microtiter plates at a final concentration of 1 mM. To each well was added 250 μg of total protein from cytoplasmic extracts in HEB buffer (50 mM Hepes pH 7.4, 50 mM KCl, 5 mM EGTA, 2 mM MgCl), with 2 mM DTT, 2 μM cyto c, and 0.5 μM DEVD-AFC substrate in a total of 150 μL. Plates were incubated at 37° C. and fluorescence was read in a LJL Biosystems plate reader at 10 min intervals). Activation of caspase-3 was monitored by cleavage of a fluorogenic substrate, Asp-Glu-Val-Asp-7-amino-4-trifluoromethylcoumarin (DEVDase activity). As designed, the DEVDase fluorescence screen encompasses the release of cyto c from the mitochondria to the activation of caspase-3. Possible targets include cyto c, Apaf-1, caspase-9, caspase-3, inhibitors of apoptosis (IAPs), and possible unidentified components present in the cytosol.

[4] = system: Jurkat cells; experiment: PARP cleavage in Jurkat cells (immunoblot); assay type: cell-based, human; conditions: 50 μM compound or 1 μM staurosporin, 6 hr
Protocol: as §1, §2

[5] = system: CCRF-CEM; experiment: Cell viability, CCRF-CEM; assay type: cell-based, human; conditions: leukemia
Text: (§3) Samples were then probed by immunoblot for (A) caspase-3 activation or (B) cleavage of PARP. (C) DNA fragmentation analysis. […] The DNA was isolated by phenol/chloroform extraction, separated on a 2% agarose gel and visualized by ethidium bromide staining. Cell viability assay.
(§4) Normal cell lines include peripheral blood lymphocytes (PBL) isolated from donated human blood, non-transformed mammary fibroblasts (MCF-10A), human mammary epithelial cells (HMEC), human umbilical vein endothelial cells (HUVEC), and human prostate epithelial cells (PREC). Transformed cell lines include cell lines from leukemia, breast, lung, ovarian, and epidermal cancers (Table 1).

[6] = system: peripheral blood lymphocytes (PBL); experiment: Cell viability, PBL; assay type: cell-based, human; conditions: normal cell
Text: as §3, §4

[7] = system: Normal (PBL) and cancer (Jurkat, Molt-4, CCRF-CEM) lymphocyte cell lines; experiment: Cell viability, normal and cancer lymphocyte cell lines compared; conditions: all four lymphocyte cell lines, normal and cancerous
Text: as §3, §4

[8] = system: NCI-H23; experiment: Cell viability, NCI-H23; assay type: cell-based, human; conditions: NCI-H23, lung
[9] = system: procaspase-3 processing; experiment: Procaspase-3 processing by capture ELISA in HeLa cell extract (cyto c / compound titration); assay type: biochemical; conditions: cyto c titrated into HeLa cell extract, no compound; read-out: concentration for half-maximal activation (AC50) of procaspase-3 processing
Protocol: FIG. 2 depicts activity of compounds 1-5 in cell lysates. (A) Compound activation is cyto c dependent. Cyto c was titrated into S-100 cytoplasmic extracts with vehicle alone or 20 μM compound and procaspase-3 processing was assayed by capture ELISA. (B) Compound activation is dose-dependent. Compounds or vehicle were titrated into S-100 cytoplasmic extracts at a cyto c concentration of 1.25 μM and procaspases-3 processing was assayed by capture ELISA. (C) Immunoblot assay of compound-induced caspase activation. Samples at the 20 μM compound concentration in (B) were separated on SDS-polyacrylamide gel and transferred to polyvinyl membrane. […]
In order to determine if these compounds required cyto c for caspase-3 activation, cyto c was titrated into HeLa cell extract in the presence and absence of compounds and procaspase-3 processing was monitored by capture ELISA (Cyto c was titrated into lysates as detailed in the screening procedure. Capture ELISA assay for active caspase-3 was adapted from Aragones et al., www.biocarta.com. Briefly, a mouse monoclonal antibody recognizing both full-length and cleaved caspase-3 (capture antibody, Transduction Laboratories) was immobilized onto an immunosorp plate and blocked with 5% milk, and 25 μL of the caspase activation reaction in 75 μL Superblock (Pierce) was added. […]

[10] = system: Jurkat cells transfected with Apaf-1 siRNA; experiment: Viability of Jurkat cells transfected with Apaf-1 siRNA (MTT test); assay type: cell-based, human; conditions: 20 nM Apaf-1 siRNA 48 hr, then 24 hr incubation
Protocol: (A) Jurkat cells were transfected with 20 nM Apaf-1 siRNA for 48 hr and half the cells were lysed and probed with antibodies to Apaf-1, caspase-9, and caspase-3. The other half of the cells was incubated with varying concentrations of (B), compound 2 or (C), Fas ligand for 24 hr and assayed for viability by MTT test. (D) SK-OV-3 cells were transiently transfected with Apaf-1 or vector control for 24 hr and then incubated with vary concentrations of compound 2 and assayed for viability. (E) Cyto c was titrated into SK-OV-3 cell lysate in the presence of 300 μM dATP, with or without 150 nM purified Apaf-1 and 20 μM compound 2 as indicated.
In order to verify that compound 2 targets the apoptosome as a function of its cytotoxic activity, small interfering RNA (siRNA) was used to silence the expression of Apaf-1 in Jurkat cells. Sense and anti-sense oligonucleotides corresponding to nucleotides 978-998 of Apaf-1 (([…]) as reported by Lassus et al. Science 297, 1352-4. (2002)), were purchased from Dharmacon. Transfection of siRNA into Jurkat cells was accomplished using GeneSilencer (Gene Therapy Systems) according to manufacturer's instructions. There was a significant decrease in the level of expression of Apaf-1 48 hr after transfection of an Apaf-1 specific siRNA, without affecting the expression of caspases in the pathway (FIG. 5A).

Molecule	processing of procaspase-3 [1]	DNA fragmentation [2]	activation of DEVDase activity [3]	cleavage of PARP [4]	also measured
CCOC(=O)NCc1ccc(Cl)c(Cl)c1 [Compound 1]	no processing	less pronounced effect	most active	–	–
O=C1Cc2ccccc2N1Cc1ccc(Cl)c(Cl)c1 [Compound 3]	significant processing	induced DNA fragmentation	strongly activated DEVDase activity	limited processing	–
CN[C@@H]1C[C@H]2O[C@@](C)([C@@H]1OC)n1c3ccccc3c3c4c(c5c6ccccc6n2c5c31)C(=O)NC4 [Staurosporin, reference compound]	significant processing	“laddering” effect	–	complete cleavage	IC50 [5]: 0.069 µM; IC50 [6]: 0.069 µM; susceptibility to cytotoxicity [7]: equally susceptible; IC50 [8]: 0.085 µM
cyto c: bovine heart cyto c added to cytoplasmic extracts to induce apoptosis	–	–	–	–	AC50 [9]: ~1.75 µM
Fas Ligand: induces apoptosis which proceeds through the caspase-8 pathway (protein, UniProt P48023 130-281, looked up) Tumor necrosis factor ligand …: QIGHPSPPPEKKELRKVAHLTGKSNSRSMPLEWEDTYGIVLLSGVKYKKGGLVINETGLYFVYSKVYFRGQSCNNLPLSHKVYMRNSKYPQDLVMMEGKMMSYCTTGQMWARSSYLGAVFNLTSADHLYVNVSELSLVNFEESQTFFGLYKL	–	–	–	–	cell killing after silencing of Apaf-1 [10]: still sensitive
